Laboratory results: publication PMC10424185, “C-2 Thiophenyl Tryptophan Trimers Inhibit Cellular Entry of SARS-CoV-2 through Interaction with the Viral Spike (S) Protein” (Journal of Medicinal Chemistry, 2023)

How the values were obtained:
[1] = system: SARS-CoV-2 virus carrying the D614G S mutation; format: cell-based
[2] = system: SARS-CoV-2 virus carrying the D614G S mutation; format: cell-based; remark: listed apart in the source

Row | SMILES | relative virus production vs mock-treatment, A549-ACE2 cells [1] | relative virus production vs mock-treatment, VeroE6-TMPRSS2 cells [2]
1 | NCCOCCOCCC(=O)NCC(=O)NC(CCC(=O)NC(Cc1c(Sc2ccc([N+](=O)[O-])cc2)[nH]c2ccccc12)C(=O)O)(CCC(=O)NC(Cc1c(Sc2ccc([N+](=O)[O-])cc2)[nH]c2ccccc12)C(=O)O)CCC(=O)NC(Cc1c(Sc2ccc([N+](=O)[O-])cc2)[nH]c2ccccc12)C(=O)O (stereo not shown) [Compound 63] | 0.035 ± 0.032 | 0.059 ± 0.018
2 | CCC(CC)COC(=O)[C@H](C)N[P@](=O)(OC[C@H]1O[C@@](C#N)(c2ccc3c(N)ncnn23)[C@H](O)[C@@H]1O)Oc1ccccc1 [remdesivir, reference compound] | 0.002 ± 0.002 | 0.002 ± 0.001
